In patent publication US20240229098A1, “BIOLUMINOGENIC ASSAY FOR DRUG-RESISTANCE BACTERIA DETECTION” (priority 2021, published 2024):
“Also recorded” adds a separate entry of the source.

Columns and labels:
[1] = molecular target: T1, firefly luciferase (Photinus pyralis, UniProt P08659); assay: Background bioluminescence and oxidation of pro-luciferin probes on repeated addition of firefly luciferase; type: biochemical
T1 construct: purchased Promega E1701
Method: The initial bioluminescent background signal may come from residual D-luciferin present in the sample. High-performance liquid chromatography (HPLC) analysis could not detect any D-luciferin at a concentration below 0.1 μM. However, addition of firefly luciferase can efficiently detect and consume the residual free D-luciferin.
To further confirm the quenching effect of dabcyl in D-Bluco, another control, Am-Bluco, was prepared that is structurally similar to D-Bluco but with dabcyl replaced by a structure lacking the broad absorption between 400 and 530 nm (FIG. 1).

[2] = tested on: AmpC; assay: Limit of detection of recombinant β-lactamase by bioluminescence (AmpC); type: biochemical; conditions: 2 hours, room temperature; 3 SD of negative control
[3] = molecular target: T2, BlaC (Mycobacterium tuberculosis, UniProt P9WKD3); assay: Limit of detection of recombinant β-lactamase by bioluminescence (BlaC); type: biochemical; conditions: 2 hours, room temperature; 3 SD of negative control
T2 construct: made in house

[4] = tested on: KPC-3, BlaC, TEM-1, IMP-1, AmpC, OXA-48; assay: Bioluminescence with panel of recombinant β-lactamases of clinical relevance; type: biochemical
Method: (§1) FIGS. 9A and 9B illustrates bioluminescent studies of D-Bluco and O-Bluco treating with various β-lactamases. 10 μM of Bluco, D-Bluco and O-Bluco incubated with 20 nM TEM-1 for 15 min in PBS at r.t. The bioluminescent signals for each compound was evaluated with or without the addition of TEM-1 by a luminator. […] The relative bioluminescent was calculated by removing background signal in PBS.
Having confirmed the quenching ability of dabcyl to lower D-Bluco bioluminescent background emission, the activity of D-Bluco towards a variety of β-lactamases that are of clinical relevance in addition to TEM-1, including KPC-3, BlaC (Class A), AmpC (Class C), and OXA-48 (Class D) was then assessed. These enzymes were recombinantly expressed and purified. The bioluminescent signal was measured with an IVIS optical imaging system after treating D-Bluco with each enzyme for 2 hours at room temperature.
D-Bluco and O-Bluco were evaluated with various β-lactamase that of clinical relevance (FIG. 9B and 9C), including KPC-3, BlaC, TEM-1 (Class A), IMP-1 (Class B), AmpC (Class C), and OXA-48 (Class D). These enzymes were recombinantly expressed, purified as previously described^25. The bioluminescent signal was measured after incubating O-Bluco or D-Bluco with each enzyme at different concentrations for 2 hr at r.t. […] This compares favorably to previously reported fluorescent cephalosporin probe with a 1000-fold sensitivity improvement.^26
(§2) The caged luciferin probes were incubated with different concentrations of TEM-1 β-lactamase or IMP-1 carbapenemase (0.001-0.1 fmol) in PBS (pH=7.4) for 2 hr at 25° C. Then a mixture of luciferase (200 nM), ATP (2 mM), and MgCl2 (4 mM) was added, and bioluminescent signals were detected with a SpectraMax microplate reader or a luminator.

[5] = tested on: E. coli/TEM lysate; assay: Bioluminescence with bacterial lysate compared to intact bacteria, E. coli/TEM; type: cell-based, Escherichia coli; conditions: CHAPS lysis
[6] = tested on: clinically bacteria isolates in urine samples; assay: RAPID BLI assay, summary for clinical bacteria isolates in urine samples; type: cell-based; conditions: in 30 mins
Description: The source of the bioluminescence background emission in bioluminogenic pro-luciferin probes was investigated. In addition to trace amounts of free D-luciferin in the sample, pro-luciferin probes can be oxidized by luciferases due to the promiscuity of the enzyme […]. […] By combining BRET quenching and chemical caging, an ultrasensitive bioluminescent probe D-Bluco was developed that could detect as low as 10-18 moles of β-lactamase activity.

[7] = tested on: S. marcescens (SME); assay: Clinical isolate spiked in synthetic urine, filtered and centrifuged, S. marcescens (SME); type: cell-based; conditions: 10 μM D-Bluco, an hour at 37° C., PBS pH 7.4
Method: (§3) FIGS. 11A-11C illustrate detection of clinical isolates spiked in urine with D-Bluco a) Workflow for clinical sample detection b) Bioluminescent response for different concentrations of S. marcescens (SME) or c) E. coli/OXA-48 spiked into synthetic urine samples following the incubation with D-Bluco (10 μM) at 37° C. for an hour. Bioluminescent signal was measured and compared to that of E. coli (10^6 c.f.u/mL).
(§4) Urinary tract infection (UTI) is a severe public health problem because of the high recurrence rates and increasing antimicrobial resistance. It is among the major cause of patient morbidity and health care expenditures for both men and women of all age groups, accounting for 1 million cases of nosocomial in USA annually and an estimate cost of 1.6 billion. As a proof-of-concept, we spiked different concentrations of clinic isolates into synthetic urine samples. E. coli expressing OXA-48 and S. marcescens (SME) were chosen as examples. S. marcescens, being an opportunistic pathogen, accounts for an average of 6.5% of all Gram negative infection in intensive Care Units. The spiked urine samples were filtered and centrifuged to collect the bacteria (FIG. 11A). The collected bacteria were then diluted in PBS (pH=7.4) and incubated with 10 μM D-Bluco for an hour at 37° C.

[8] = tested on: E. coli expressing OXA-48; assay: Clinical isolate spiked in synthetic urine, filtered and centrifuged, E. coli expressing OXA-48; type: cell-based, Escherichia coli; conditions: E. coli expressing OXA-48, 10 μM D-Bluco, an hour at 37° C., PBS pH 7.4
Method: as §3, §4

[9] = molecular target: T3, TEM-1 (Escherichia coli, UniProt P62593); type: biochemical; design: made in house; conditions: 10 μM probe
Method: RLU indicates relative light units.
as §1
The bioluminescence emission from the released D-luciferin was measured. […] Also evaluated was whether there was interference between luciferase and β-lactamases in such dual enzyme reaction system.
The signal to background ratio for D-Bluco, O-Bluco, and Bluco was measured following the addition of the firefly luciferase (fLuc).
as §2

[10] = molecular target: T3, TEM-1; assay: Limit of detection of recombinant β-lactamase by bioluminescence (TEM-1); type: biochemical; design: made in house; conditions: 2 hours, room temperature; 3 SD of negative control
[11] = tested on: E. coli/TEM; assay: Inhibitor test with E. coli/TEM and D-Bluco; conditions: D-Bluco 10 μM, no inhibitor
[12] = Stability of probe incubated with E. coli or PBS; conditions: incubated with Escherichia coli or PBS
[13] = tested on: E. coli/NDM lysate; assay: Bioluminescence with bacterial lysate compared to intact bacteria, E. coli/NDM; conditions: CHAPS lysis
Method: (§5) To evaluate whether releasing β-lactamases from periplasm could improve detection sensitivity, the bacteria were lysed.
(§6) Two clinically significant isolates K. pneumoniae expressing KPC carbapenemase (K. pneumoniae/KPC) and E. coli expressing New Delhi metallo β-lactamase (E. coli/NDM) were evaluated.
(§7) Bacteria was mixed with 0.5% CHAPS lysis buffer for 15 min, and then incubated with D-Bluco at room temperature for another 15 min. The resulted mixture was combined with assay buffer which contains MgCl2, CoA, ATP, and luciferase for immediate bioluminescent reading.

[14] = tested on: K. pneumoniae/KPC lysate; assay: Bioluminescence with bacterial lysate compared to intact bacteria, K. pneumoniae/KPC; conditions: CHAPS lysis
Method: as §5, §6, §7

T3 sequence (P62593 24-286 limits assumed): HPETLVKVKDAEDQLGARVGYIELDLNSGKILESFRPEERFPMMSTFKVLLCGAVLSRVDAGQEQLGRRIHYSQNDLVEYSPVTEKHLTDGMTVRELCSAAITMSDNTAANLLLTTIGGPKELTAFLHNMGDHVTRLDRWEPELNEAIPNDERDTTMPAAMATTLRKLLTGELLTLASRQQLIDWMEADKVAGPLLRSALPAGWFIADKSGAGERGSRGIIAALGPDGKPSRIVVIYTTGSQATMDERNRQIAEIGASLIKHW
T1 sequence (P08659 whole entry): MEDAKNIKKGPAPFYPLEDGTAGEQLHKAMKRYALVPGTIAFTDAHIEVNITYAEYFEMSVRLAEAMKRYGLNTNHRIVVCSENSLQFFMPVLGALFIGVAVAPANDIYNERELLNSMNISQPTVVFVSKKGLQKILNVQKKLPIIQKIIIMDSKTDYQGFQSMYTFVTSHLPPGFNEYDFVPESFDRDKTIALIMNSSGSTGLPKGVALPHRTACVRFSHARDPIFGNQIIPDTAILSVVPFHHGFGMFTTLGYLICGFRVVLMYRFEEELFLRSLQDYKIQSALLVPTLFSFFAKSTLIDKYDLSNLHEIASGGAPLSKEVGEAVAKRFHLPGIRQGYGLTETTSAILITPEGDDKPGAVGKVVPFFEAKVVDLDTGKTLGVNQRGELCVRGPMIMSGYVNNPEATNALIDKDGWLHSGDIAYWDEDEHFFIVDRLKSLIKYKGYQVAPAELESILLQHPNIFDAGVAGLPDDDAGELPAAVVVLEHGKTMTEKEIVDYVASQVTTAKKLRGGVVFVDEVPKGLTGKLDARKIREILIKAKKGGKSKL
T2 sequence (P9WKD3 35-307): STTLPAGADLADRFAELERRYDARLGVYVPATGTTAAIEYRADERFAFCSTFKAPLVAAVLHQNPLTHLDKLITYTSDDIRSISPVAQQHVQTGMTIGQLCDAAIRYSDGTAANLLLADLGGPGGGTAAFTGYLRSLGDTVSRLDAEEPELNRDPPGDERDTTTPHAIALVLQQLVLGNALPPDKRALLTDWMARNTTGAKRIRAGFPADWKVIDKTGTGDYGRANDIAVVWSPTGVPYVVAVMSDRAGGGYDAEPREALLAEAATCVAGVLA

For CN(C)c1ccc(/N=N/c2ccc(C(=O)NCCCCCC(=O)NC3C(=O)N4C(C(=O)O)=C(COc5ccc6nc(C7=N[C@@H](C(=O)O)CS7)sc6c5)C[S+]([O-])C34)cc2)cc1 (stereo partly drawn) [D-Bluco, 3-(((2-((S)-4-carboxy-4,5-dihydrothiazol-2-yl)benzo[d]thiazol-6-yl)oxy)methyl)-7-(6-(4-((E)-(4-(dimethylamino)phenyl)diazenyl)benzamido)hexanamido)-8-oxo-5-thia-1-azabicyclo[4.2.0]oct-2-ene-2-carboxylic acid 5-oxide], the “oxidation of probe incubated with firefly luciferase (mass spectrometry)” value ([1]; incubated with firefly luciferase) was “oxidized”, the “bioluminescence emission on additional batches of firefly luciferase” value ([1]; repeated firefly luciferase addition, no β-lactamase) was “no further bioluminescence emission was detected” and the “limit of detection (LOD) of AmpC” value [2] was 0.1 femtomole. For the same compound, the “limit of detection (LOD) of BlaC (all other β-lactamases)” value [3] was 0.001 femtomole, the “lowest detectable β-lactamase activity” value [4] was 10-18 moles and the “detection limits for the panel of enzymes” value ([4]; KPC-3, BlaC, TEM-1, IMP-1, AmpC, OXA-48, 2 hr at r.t.) was “within the femtomole range”. For the same compound, the “bioluminescence triggered by β-lactamases TEM-1, KPC-3, BlaC, AmpC, OXA-48” value ([4]; each enzyme 2 hours at room temperature, IVIS imaging) was “significant bioluminescence”, the “signal enhancement with lysate compared to intact bacteria” value [5] was 52 fold and the “sensitivity of RAPID BLI assay for clinical isolates in urine samples” value [6] was 10^2-10^3 cfu/mL. For the same compound, the “concentration from which significant bioluminescence enhancement is seen” value [7] was 10^4 c.f.u/mL, the “concentration from which significant bioluminescence enhancement is seen” value [8] was 10^5 c.f.u/mL and the “fold increase in bioluminescence emission upon TEM-1 treatment (turn-on ratio, signal with TEM-1 over signal without TEM-1)” value ([9]; TEM-1 20 nM, 15 min, PBS pH 7.4, r.t.) was 1420 fold. For the same compound, the “initial bioluminescent background signal without TEM-1” value ([9]; without TEM-1) was “significantly lower than that of Bluco; also recorded: lowest background signal”, the “limit of detection (LOD) of TEM-1 (all other β-lactamases)” value [10] was 0.001 femtomole and the “increase of bioluminescent intensity of E. coli/TEM-1 treated with probe over PBS” value [11] was 260 fold. The “stability when incubated with E. coli or PBS” value [12] was “highly stable”, the “signal enhancement with lysate compared to intact bacteria” value [13] was 145 fold and the “signal enhancement with lysate compared to intact bacteria” value [14] was 141 fold.
